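Growth conditions: 96-well plates. Treatment: test compound, 48 hours, 5 concentrations. Analysis: linear interpolation between bracketing concentrations; unreached endpoints set to highest concentration. GI50: concentration for 50% inhibition of growth.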 Calls of active or inactive are those of the source. No stated cut-off is given here; in the data, active = GI50 up to about 1.1 µM and inactive = higher.
Assays:
Test in all cases: NCI-60 cell line screen, 48 h
TK-10 = test system: TK-10
786-0 = test system: 786-0
Hs-578T = test system: Hs-578T
SNB-19 = test system: SNB-19
IGROV-1 = test system: IGROV-1
HOP-92 = test system: HOP-92
MDA-N = test system: MDA-N
SF-295 = test system: SF-295
LOX IMVI = test system: LOX IMVI
NCI/ADR-RES = test system: NCI/ADR-RES
SNB-75 = test system: SNB-75
CCRF-CEM = test system: CCRF-CEM
KM12 = test system: KM12
OVCAR-5 = test system: OVCAR-5
MOLT-4 = test system: MOLT-4
SN12C = test system: SN12C
RXF 393 = test system: RXF 393
SR = test system: SR
COLO 205 = test system: COLO 205
HCT-15 = test system: HCT-15

Structure (SMILES) | GI50 (TK-10) | GI50 (786-0) | GI50 (Hs-578T) | GI50 (SNB-19) | GI50 (IGROV-1) | GI50 (HOP-92) | GI50 (MDA-N) | GI50 (SF-295) | GI50 (LOX IMVI) | GI50 (NCI/ADR-RES) | GI50 (SNB-75) | GI50 (CCRF-CEM) | GI50 (KM12) | GI50 (OVCAR-5) | GI50 (MOLT-4) | GI50 (SN12C) | GI50 (RXF 393) | GI50 (SR) | GI50 (COLO 205) | GI50 (HCT-15) [µM]
NCC(=O)N1CCN(c2nc(N3CCCC3)c3nc(Cl)c(NCc4ccccc4)nc3n2)CC1 | 1.9 µM (inactive) | 1.69 µM (inactive) | 2.12 µM (inactive) | 1.82 µM (inactive) | 1.63 µM (inactive) | 1.45 µM (inactive) | 1.82 µM (inactive) | 1.86 µM (inactive) | 1.78 µM (inactive) | 8.26 µM (inactive) | 1.57 µM (inactive) | 2.49 µM (inactive) | 2.04 µM (inactive) | 2.91 µM (inactive) | 1.12 µM (inactive) | 1.85 µM (inactive) | 1.43 µM (inactive) | 1.56 µM (inactive) | 1.7 µM (inactive) | 1.97
CCOC(=O)C1(C(=O)OCC)[C@@H](c2ccccc2)C2=NO[C@@H]3CCC[C@H]1[C@H]23 | 49.4 µM (inactive) | 89.3 µM (inactive) | > 100 µM (inactive) | > 100 µM (inactive) | 50.4 µM (inactive) | 42.7 µM (inactive) | 24.5 µM (inactive) | 51.6 µM (inactive) | 81.1 µM (inactive) | 56.9 µM (inactive) | 47.4 µM (inactive) | 23.8 µM (inactive) | 28.9 µM (inactive) | > 100 µM (inactive) | 55.7 µM (inactive) | > 100 µM (inactive) | 48.4 µM (inactive) | 40.7 µM (inactive) | 29 µM (inactive) | 56
CCc1cccc(C(C)C)c1NC(=O)C(=O)C1C(=O)Nc2ccccc2[S+]1[O-] (centres undefined) | > 100 µM (inactive) | > 100 µM (inactive) | > 100 µM (inactive) | > 100 µM (inactive) | 38.9 µM (inactive) | > 100 µM (inactive) | > 100 µM (inactive) | > 100 µM (inactive) | > 100 µM (inactive) | > 100 µM (inactive) | > 100 µM (inactive) | > 100 µM (inactive) | > 100 µM (inactive) | > 100 µM (inactive) | > 100 µM (inactive) | > 100 µM (inactive) | 56.1 µM (inactive) | > 100 µM (inactive) | > 100 µM (inactive) | > 100
CC(C)[Si](OC1=CCCCCC12C(=O)N(C)c1ccccc12)(C(C)C)C(C)C (centres undefined) | 29 µM (inactive) | 17.7 µM (inactive) | 21.6 µM (inactive) | 14.9 µM (inactive) | 25.1 µM (inactive) | 16.5 µM (inactive) | 28.4 µM (inactive) | 13.5 µM (inactive) | 19.5 µM (inactive) | 18.8 µM (inactive) | 13.5 µM (inactive) | 17.1 µM (inactive) | 18.5 µM (inactive) | 16.9 µM (inactive) | 32.5 µM (inactive) |  | 8.77 µM (inactive) | 29.9 µM (inactive) | 18.9 µM (inactive) | 17.6
CC(C)C(=O)CP(=O)(O)O | > 100 µM (inactive) | > 100 µM (inactive) | > 100 µM (inactive) | > 100 µM (inactive) | > 100 µM (inactive) | > 100 µM (inactive) | > 100 µM (inactive) | > 100 µM (inactive) | > 100 µM (inactive) | > 100 µM (inactive) | > 100 µM (inactive) | > 100 µM (inactive) | > 100 µM (inactive) | > 100 µM (inactive) | > 100 µM (inactive) | > 100 µM (inactive) | > 100 µM (inactive) | > 100 µM (inactive) | > 100 µM (inactive) | > 100
N=C(N)NS(=O)(=O)c1ccc(NC(=O)c2cccc3c(NNc4ccc(S(N)(=O)=O)cc4)c4ccccc4nc23)cc1 | > 100 µM (inactive) | 59.4 µM (inactive) | 59.4 µM (inactive) | > 100 µM (inactive) | 55.5 µM (inactive) | 25.3 µM (inactive) | > 100 µM (inactive) | > 100 µM (inactive) | 20.4 µM (inactive) | > 100 µM (inactive) | > 100 µM (inactive) | 34.5 µM (inactive) | 50.7 µM (inactive) | > 100 µM (inactive) | 28.2 µM (inactive) | 99.3 µM (inactive) | > 100 µM (inactive) | 35 µM (inactive) | > 100 µM (inactive) | 38.9
C=CC(C)(C)/C(=C\CO[Si](C(C)C)(C(C)C)C(C)C)C(=O)N(C)c1ccccc1I | 13.4 µM (inactive) | 14.5 µM (inactive) | 11.8 µM (inactive) | 14.5 µM (inactive) | 15.5 µM (inactive) | 8.61 µM (inactive) | 16.4 µM (inactive) | 13 µM (inactive) | 14.3 µM (inactive) | 19.5 µM (inactive) | 16.3 µM (inactive) | 5.79 µM (inactive) | 27.5 µM (inactive) | 13.9 µM (inactive) | 9.79 µM (inactive) | 16.2 µM (inactive) | 11.4 µM (inactive) | 6.81 µM (inactive) | 16.4 µM (inactive) | 16.4
Cc1ccc2c(c1)C=CC1(O2)N(c2ccccc2)C(=S)OC1(C)C (centres undefined) | > 100 µM (inactive) | > 100 µM (inactive) | 31.9 µM (inactive) | > 100 µM (inactive) | 10.1 µM (inactive) | 12 µM (inactive) | 29.1 µM (inactive) | 48.2 µM (inactive) | > 100 µM (inactive) | > 100 µM (inactive) | > 100 µM (inactive) | 53 µM (inactive) | 34.5 µM (inactive) | 33.7 µM (inactive) | 29.9 µM (inactive) | > 100 µM (inactive) | 73.3 µM (inactive) | 14.5 µM (inactive) | > 100 µM (inactive) | 46.2
CC(C)(CNC(=O)/C(Cl)=C(/Cl)C(=O)O)CNC(=O)/C(Cl)=C(/Cl)C(=O)O | 64.3 µM (inactive) | > 100 µM (inactive) | > 100 µM (inactive) | > 100 µM (inactive) | > 100 µM (inactive) | 78.3 µM (inactive) | > 100 µM (inactive) | > 100 µM (inactive) | 28.8 µM (inactive) | > 100 µM (inactive) | > 100 µM (inactive) | 39.3 µM (inactive) | > 100 µM (inactive) | > 100 µM (inactive) | 30.9 µM (inactive) | > 10 µM (inactive) | > 100 µM (inactive) | 44.6 µM (inactive) | 18.2 µM (inactive) | > 10
CC(=O)O[C@H]1C(=O)[C@@]2(C)[C@H]([C@H](OC(=O)c3ccccc3)[C@]3(O)C[C@H](OC(=O)[C@H](O)[C@@H](NC(=O)c4ccoc4)c4ccccc4)C(C)=C1C3(C)C)[C@]1(OC(C)=O)CO[C@@H]1C[C@@H]2O | 0.0861 µM (active) | 0.18 µM (active) | 0.0246 µM (active) | 0.0946 µM (active) | 0.016 µM (active) | 0.552 µM (active) | 0.00361 µM (active) | < 0.01 µM (active) | 0.0215 µM (active) | 44 µM (inactive) | 0.0112 µM (active) | 0.0379 µM (active) | < 0.01 µM (active) | 0.0256 µM (active) | 0.0332 µM (active) | 0.0338 µM (active) | < 0.01 µM (active) | 0.0355 µM (active) | 0.026 µM (active) | 0.757
